# Measurements: patent publication US20200288721A1, “PESTICIDAL COMPOSITION COMPRISING AN OXIME CARBAMATE AND USE THEREOF” (priority 2017, published 2020)
# Test: Stability Test: storage of SL formulations in sealed bottles at 54° C. for 14 days
# Format: physicochemical
# Conditions: acid at 1% (Table 1) or 1-3% (Table 3) in 24% oxamyl SL
# Procedure: Samples of the compositions summarised in Table 1 above were packaged in commercially available 500 ml fluorinated plastic bottles and the bottles sealed. The bottles were stored at 54° C. for 14 days. Thereafter, the bottles were cooled to room temperature and their appearance assessed. The concentration of the active ingredient, oxamyl, in each bottle was measured.
# Samples of the compositions summarised in Table 3 above were packaged in commercially available 500 ml fluorinated plastic bottles and the bottles sealed. The bottles were stored at 54° C. for 14 days. Thereafter, the bottles were cooled to room temperature and their appearance assessed. The concentration of the active ingredient, oxamyl, in each bottle was measured.
row,Compound,stabilisation / chemical degradation of the oxamyl active ingredient (in words)
1,CC(=O)O [Acetic acid],significantly reduced the chemical degradation
2,OB(O)O [boric acid],not effective in stabilising the oxamyl active ingredient
3,O=C(O)CC(O)(CC(=O)O)C(=O)O [citric acid],significantly reduced the chemical degradation
4,Cl [hydrochloric acid],significantly reduced the chemical degradation
5,O=P(O)(O)O [phosphoric acid],significantly reduced the chemical degradation
